Data from publication PMC7288168, “Synthesis and Cytotoxic Activity of Chiral Sulfonamides Based on the 2-Azabicycloalkane Skeleton” (Molecules, 2020).
Entries after “also recorded” stand apart in the source; their conditions may differ.

Assays:
[1] = Solubility in DMSO for in vitro tests; format: physicochemical; settings: DMSO used for the in vitro tests
Protocol: All tested compounds were dissolved in dimethyl sulfoxide (DMSO). […] To assess the anticancer activity of compounds, we tested human hepatocellular carcinoma (HCC), medulloblastoma (MB), and glioblastoma (GBM) cell lines. Further, to compare the effects of selected compounds on nonmalignant primary cells, we used primary human umbilical vein endothelial cells (HUVEC).
We planned to use compounds 8 and 9 as references in the current study. […] In our further studies, we plan to compare activities of all compounds using ethanol as the solvent.

human colon cancer HT-29 = test system: human colon cancer HT-29; set-up: method as in doi:10.1016/j.tetasy.2016.06.009; settings: colon cancer line; cited from earlier work
U251 cells = experiment: Neutral red cell viability assay, U251; format: cell-based, human; settings: for decrease of cell viability, U251: 50 µM, 24 h, first screening; for IC50: Homo sapiens, U-251, 24 h treatment, neutral red, read-out: LD50 U251 (GBM)
Protocol: (§1) The human hepatocellular carcinoma (HCC) cell line HUH7 was purchased from ATCC (LGC standards GmbH, Wesel, Germany). The Austrian human HCC cell line AKH12 has been well characterized and was kindly provided by Prof. Bettina Grasl-Kraupp. HUH7 cells were cultured in Dulbecco’s modified Eagle’s medium (Thermo Fisher Scientific, Waltham, MA, USA) containing 10% heat-inactivated fetal bovine serum (FBS) (Sigma-Aldrich, St. Louis, MO, USA), 1% penicillin-streptomycin (10,000 U/mL) (Thermo Fisher Scientific, Waltham, MA, USA), and 1% minimum essential medium nonessential amino acids (100x) (Thermo Fisher Scientific, Waltham, MA, USA). AKH12 cells were cultured in RPMI1640 medium (Sigma-Aldrich, St. Louis, MO, USA) containing 10% heat-inactivated FBS. DAOY and D283Med (short D283) medulloblastoma (MB) cells were purchased from ATCC (LGC standards GmbH, Wesel, Germany). D425Med (short D425) and UW228-2 were provided by Thomas Ströbel from the Institute of Neurology Medical University of Vienna. The cells were cultured in Dulbecco’s modified Eagle’s medium (Sigma-Aldrich, St. Louis, MO, USA) containing 10% FBS (Sigma-Aldrich, St. Louis, MO, USA), 2% L-Glutamine (Sigma-Aldrich, St. Louis, MO, USA), and 0.2% Normocin (Sigma-Aldrich, St. Louis, MO, USA). U-251 MG (short U251) glioblastoma (GBM) cell line was purchased from Sigma-Aldrich and cultured in Dulbecco’s modified Eagle’s medium (Sigma-Aldrich, St. Louis, MO, USA) containing 10% FBS (Sigma-Aldrich, St. Louis, MO, USA), 2% L-Glutamine (Sigma-Aldrich, St. Louis, MO, USA), and 0.2% Normocin (Sigma-Aldrich, St. Louis, Missouri, USA). Human umbilical vein endothelial cells (HUVECs) were provided by Brigitte Winter from the Department of Surgery Medical University of Vienna and were grown in endothelial cell growth medium-2 BulletKitTM (Lonza, Basel, Switzerland) under standard tissue culture conditions. All cells were incubated at 37 °C in a 5% CO2 atmosphere and regularly checked for mycoplasma contamination.
(§2) Cell viability was determined using a neutral red assay, as previously described. The cells were placed in 24-well plates and grown to reach 70–80% confluency prior to treatment. After treatment for 24 h, cells were incubated with neutral red at a concentration of 50 µg/mL in serum-free medium for 2 h at 37 °C. Cells were then washed 2x and incubated with 1% acetic acid in 70% ethanol. The dye concentration was measured photometrically at 562 nm. The percentage of survival was calculated considering DMSO-treated (indicated as 0 µM concentration) cells as 100% control.
(§3) LD50 was defined as the amount of a toxic agent required to eliminate 50% of the cell population. The LD50 was calculated in each experiment from the respective dose–response curve. All experiments were performed in triplicate wells.

UW228-2 cells = experiment: Neutral red cell viability assay, UW228-2; format: cell-based, human; settings: for reduction of cell viability, UW228-2: 50 µM, 24 h, first screening; for IC50: Homo sapiens, UW228-2, 24 h treatment, neutral red, read-out: LD50 UW228-2 (MB)
Protocol: as §1, §2, §3

HUH7 cells = experiment: Neutral red cell viability assay, HUH7; format: cell-based, human; settings: Homo sapiens, Huh-7; 24 h treatment, neutral red; read-out: LD50 HUH7 (HCC)
Protocol: as §1, §2, §3

DAOY cells = experiment: Neutral red cell viability assay, DAOY; format: cell-based, human; settings: for reduction of cell viability, DAOY: 50 µM, 24 h, first screening; for IC50: Homo sapiens, Daoy, 24 h treatment, neutral red, read-out: LD50 DAOY (MB)
Protocol: as §1, §2, §3

AKH12 cells = experiment: Neutral red cell viability assay, AKH12; format: cell-based, human; settings: for reduction of cell viability, AKH12: 50 µM, 24 h, first screening; for IC50: Homo sapiens, 24 h treatment, neutral red, read-out: LD50 AKH12 (HCC)
Protocol: as §1, §2, §3

D283 cells = experiment: Neutral red cell viability assay, D283; format: cell-based, human; settings: for reduction of cell viability, D283: 50 µM, 24 h, first screening; for IC50: Homo sapiens, D283, 24 h treatment, read-out: LD50 D283 (MB)
Protocol: as §1, §2, §3

D425 cells = experiment: Cell viability assay (suspension cell line), MTT/CellTiter Blue, D425; format: cell-based, human; settings: for reduction of cell viability, D425: 50 µM, 24 h, first screening; for IC50: Homo sapiens, 24 h treatment, suspension cell assay, read-out: LD50 D425 (MB); for HUVEC/D425 LD50 Fold Change: ratio of LD50 HUVEC to LD50 D425
Protocol: as §1, §3
(§4) One day before treatment, 2 × 10^4 of D425Med or HUVEC cells were seeded into 24-well plates and incubated at 37 °C in a humidified atmosphere containing 5% CO2.The cells were treated with different compounds for 24 h. A […] assay using the CellTiter Blue reagent (Promega, Fitchburg, Wisconsin, USA) was performed according to the manufacturer’s protocol. Experiments were performed in triplicate and repeated three times. The percentage of survival was calculated as the ratio using DMSO-treated (indicated as 0 µM concentration) cells as 100% control.

HUVEC cells [2] = experiment: Neutral red cell viability assay, HUVEC (Table 1); format: cell-based; settings: Table 1, nonmalignant primary cells, 24 h
Protocol: as §1, §2, §3

HUVEC cells [3] = experiment: Cell viability assay MTT/CellTiter Blue, HUVEC (Table 2); format: cell-based; settings: Table 2, nonmalignant primary cells, 24 h, assay as for D425
Protocol: as §1, §3, §4

SMILES	solubility in DMSO [1]	IC50 (human colon cancer HT-29)	decrease of cell viability, U251 (U251 cells)	IC50 (U251 cells)	reduction of cell viability, UW228-2 (UW228-2 cells)	IC50 (UW228-2 cells)	IC50 (HUH7 cells)	reduction of cell viability, DAOY (DAOY cells)	IC50 (DAOY cells)	reduction of cell viability, AKH12 (AKH12 cells)	IC50 (AKH12 cells)	reduction of cell viability, D283 (D283 cells)	IC50 (D283 cells)	reduction of cell viability, D425 (D425 cells)	IC50 (D425 cells)	HUVEC/D425 LD50 Fold Change (D425 cells)	LD50 HUVEC (HUVEC cells [2])	LD50 HUVEC (HUVEC cells [3])	D425 cell viability as compared to HUVEC cells (D425 cells; dose-response 24 h, Student's t-test, p ≤0.05 / p ≤0.01)	melting point
CC(c1ccccc1)N1C2CCC(C2)C1CNCCNCC1C2CCC(C2)N1C(C)c1ccccc1 (centres unmarked) [Compound 8]	not sufficient; also recorded: insufficiently soluble	7.2 ± 0.8 µM	–	–	–	–	–	–	–	–	–	–	–	–	–	–	–	–	–	–
CC(c1ccccc1)N1C2CCC(C2)C1CNCC1C2CCC(C2)N1C(C)c1ccccc1 (centres unmarked) [Compound 9]	not sufficient; also recorded: insufficiently soluble	–	–	–	–	–	–	–	–	–	–	–	–	–	–	–	–	–	–	–
CC(c1ccccc1)N1CC(NS(=O)(=O)c2ccc(-c3ccccc3)cc2)C2CCC1C2 [Compound 11a, 4-Phenyl-N-((2-((S)-1-phenylethyl)-(1S,4S,5R)-2-azabicyclo[3.2.1]octan-4-yl)benzenesulfonamide]	–	–	more than 50%	18.8 ± 2.11 µM	reduced cell viability	16 ± 1.03 µM	22.5 ± 1.21 µM	reduced cell viability	18.7 ± 1.88 µM	reduced cell viability below LD50	28.8 ± 1.53 µM	reduced cell viability	20 ± 2.02 µM	reduced cell viability	21.4 ± 0.89 µM	1.01	13.35 ± 0.25 µM	21.71 ± 1.99 µM	–	–
COc1ccc(-c2ccc(S(=O)(=O)NC3CN(C(C)c4ccccc4)C4CCC3C4)cc2)cc1 [Compound 11e, 4-(4-Methoxyphenyl)-N-((2-((S)-1-phenylethyl)-(1S,4S,5R)-2-azabicyclo[3.2.1]octan-4-yl)benzenesulfonamide]	–	–	more than 50%	23.7 ± 1.69 µM	reduced cell viability	23.5 ± 1.56 µM	30.2 ± 2.21 µM	reduced cell viability	24 ± 1.49 µM	reduced cell viability below LD50	28 ± 1.39 µM	reduced cell viability	25.9 ± 1.9 µM	reduced cell viability	17.8 ± 1.04 µM	2.04	17.58 ± 2.94 µM	36.38 ± 4.37 µM	significantly reduced D425 cell viability as compared to HUVEC cells	–
CC(c1ccccc1)N1CC(NS(=O)(=O)c2cc(C(F)(F)F)cc(C(F)(F)F)c2)C2CCC1C2 [Compound 11g, 3,5-Bis(trifluoromethyl)-N-((2-((S)-1-phenylethyl)-(1S,4S,5R)-2-azabicyclo[3.2.1]octan-4-yl)benzenesulfonamide]	–	–	more than 50%	24.8 ± 0.92 µM	reduced cell viability	20.1 ± 1.34 µM	20 ± 1.1 µM	reduced cell viability	20.4 ± 1.33 µM	reduced cell viability below LD50	28 ± 1.72 µM	reduced cell viability	17.2 ± 0.89 µM	reduced cell viability	11.2 ± 1.73 µM	1.42	18.68 ± 1.97 µM	16 ± 2.29 µM	–	–
Cc1ccc(-c2ccc(S(=O)(=O)N(CCN(CC3C4CCC(C4)N3C(C)c3ccccc3)S(=O)(=O)c3ccc(-c4ccc(C)cc4)cc3)CC3C4CCC(C4)N3C(C)c3ccccc3)cc2)cc1 [Compound 12b, Bis-4’-methyl-N,N-{[(1S,3R,4R)-2-((S)-1-phenylethyl)-2-azabicyclo[2.2.1]heptan-3-yl]methyl}-[1,1'-biphenyl]ethyl-4-sulfonamide]	not sufficient	–	–	–	–	–	–	–	–	–	–	–	–	–	–	–	–	–	–	120 to 125 °C
CC(c1ccccc1)N1C2CCC(C2)C1CN(CCN(CC1C2CCC(C2)N1C(C)c1ccccc1)S(=O)(=O)c1ccc(-c2ccc(Cl)cc2)cc1)S(=O)(=O)c1ccc(-c2ccc(Cl)cc2)cc1 [Compound 12d, Bis-4’-chloro-N,N-{[(1S,3R,4R)-2-((S)-1-phenylethyl)-2-azabicyclo[2.2.1]heptan-3-yl]methyl}-[1,1'-biphenyl]ethyl-4-sulfonamide]	not sufficient	–	–	–	–	–	–	–	–	–	–	–	–	–	–	–	–	–	–	252 to 255 °C
CC(=O)Nc1ccc(S(=O)(=O)N(CCN(CC2C3CCC(C3)N2C(C)c2ccccc2)S(=O)(=O)c2ccc(NC(C)=O)cc2)CC2C3CCC(C3)N2C(C)c2ccccc2)cc1 [Compound 12i, Bis-N,N-(4-(N-(((1S,3R,4R)-2-((S)-1-phenylethyl)-2-azabicyclo[2.2.1]heptan-3-yl)methyl)sulfamoyl)ethyl)phenyl)acetamide]	–	–	more than 50%	15.3 ± 1.59 µM	reduced cell viability	28.4 ± 2.11 µM	7.75 ± 0.84 µM	reduced cell viability	12.9 ± 1.59 µM	reduced cell viability below LD50	5.75 ± 0.47 µM	reduced cell viability	21.8 ± 1.9 µM	reduced cell viability	15.6 ± 0.93 µM	0.57	3.16 ± 0.15 µM	8.91 ± 2.11 µM	–	–
CC(c1ccccc1)N1C2CCC(C2)C1CN(CC1C2CCC(C2)N1C(C)c1ccccc1)S(=O)(=O)c1ccc(-c2ccccc2)cc1 [Compound 13a, N-Bis-(((1S,3R,4R)-2-((S)-1-phenylethyl)-2-azabicyclo[2.2.1]heptan-3-yl)methyl)-[1,1'-biphenyl]-4-sulfonamide]	–	–	more than 50%	27.6 ± 1.04 µM	reduced cell viability	25.9 ± 1.98 µM	13.9 ± 0.49 µM	reduced cell viability	19.2 ± 1.37 µM	reduced cell viability below LD50	8 ± 0.28 µM	reduced cell viability	38.4 ± 1.11 µM	reduced cell viability	30.5 ± 1.86 µM	0.52	12.13 ± 0.26 µM	16 ± 0.79 µM	–	–
N.N.[Cl][Pt][Cl] [cisplatin]	–	9.7 ± 2 µM	–	–	–	–	–	–	–	–	–	–	–	–	–	–	–	–	–	–
